Test results from patent publication US20200163984A1, “USE OF ISOVALERYL SPIRAMYCIN I, II AND/OR III IN MANUFACTURING MEDICAMENT FOR TREATING AND/OR PREVENTING TUMOR, AND MEDICAMENT” (SHENYANG FUYANG PHARMACEUTICAL TECHNOLOGY CO., LTD., priority 2017, published 2020).
In brackets after ≈: the same amount, converted by molar mass.

Columns and labels:
[1] = tested on: human tissue lymphoma cell U937; settings: U937, MTT, 48 h
Experimental: (§1) The purpose of the assay is to evaluate the in vitro cell proliferation inhibition or cytotoxic activity of a tested sample.
(§2) U937 and HL-60 were suspension cells, and cells in a logarithmic growth phase were selected and prepared into a 2×10^5/ml cell suspension by a RPMI 1640 culture medium containing 10% fetal bovine serum. And the cell suspension was inoculated in a 96-well culture plate, and each well was 50 μL and the 96-well culture plate was cultured at 37° C. and 5% CO2 for 24 hours. 50 μL of a culture medium containing different concentrations of the tested sample isovaleryl spiramycin I, isovaleryl spiramycin II, or isovaleryl spiramycin III was added in the experimental group, while a culture medium containing the same volume of solvent was added into the control group. Each group was set up with 3 parallel wells that were cultured at 37° C. and 5% CO2 for 48 h. And 10 μL of freshly prepared medium containing 5 mg/ml MTT was added into each well for continuous incubation for 4 hours at 37° C. The crystals were dissolved in 100 μL of a triple solution (SDS 10 g, 10 M HCl 0.1 mL, isobutanol 5 mL, diluted with distilled water to 100 mL), and incubated at 37° C. for 12 hours. The optical density value was measured at 492 nm with a microplate reader.
(§3) The inhibition rate of the medicament on tumor cell growth is calculated according to the following formula:
(§4) Tumor cell growth inhibition rate (%)=[A492 (negative control)−A492 (dosing group)]/A492 (negative control)×100%
(§5) And the half-inhibitory concentration (IC50) of the sample is determined therefrom.

[2] = tested on: human promyelocytic leukemia cell HL-60; settings: HL-60, MTT, 48 h
Experimental: as §1, §2, §3, §4, §5

[3] = tested on: transplanted tumor of human thyroid cancer cell TPC-1; test: TPC-1 transplanted tumor in nude mice; settings: for Tumor Volume (mm3) (d30): d 30
Experimental: (§6) Then cell concentration was adjusted to 1×10^7/ml with matrigel, then each nude mouse was inoculated subcutaneously with 0.2 ml of cells at its right armpit and recorded as the first day of inoculation. When the tumor grows to be greater than or equal to 100 mm^3, the mice were randomly divided into 11 groups with 6 mice in each group: isovaleryl spiramycin I groups with doses of 25, 50 and 100 mg/kg, isovaleryl spiramycin II groups with doses of 25, 50 and 100 mg/kg, and isovaleryl spiramycin III groups with doses of 25, 50 and 100 mg/kg. Each group was continuously administered intragastrically for 30 days with a dose of 20 ml/kg. The mice were sacrificed the next day after drug withdrawal and the indicators were tested. The long diameter and short diameter of the tumor, and the body weight of each mouse were recorded every 3 days from drug administration to nude mouse sacrifice.
(§7) The body weight of the nude mice and the long diameter (a) and short diameter (b) of the transplanted tumor were measured every 3 days, and the tumor volume (v), relative tumor volume (RTV) and relative tumor proliferation rate (T/C) are calculated respectively according to the following formulas, wherein V=a×b^2/2; RTV=V/V0 (V0 is the tumor volume before administration, V is the tumor volume before sacrifice), and T/C (%)=treatment group RTV/model control group RTV×100%.
(§8) Each mouse was weighed and sacrificed. After the tumor was completely stripped off from the body of the mouse, the non-tumor tissues such as blood stains and fat were removed to weigh the tumor and calculate the tumor growth inhibition rate. The average tumor weight of each group of mice is used as an indicator of efficacy. Tumor growth inhibition rate (%)=(1−the average tumor weight of the treatment group/the average tumor weight of the model group)×100%.

[4] = tested on: transplanted tumor of human esophageal cancer cell TE-1; test: TE-1 transplanted tumor in nude mice
Experimental: as §6, with “group: a model group, a cyclophosphamide group,” for “group:”
as §7, §8

[5] = TPC-1, high dose (100 mg/kg in method) i.g. 30 days
[6] = TPC-1, low dose (25 mg/kg in method) i.g. 30 days
[7] = TPC-1, medium dose (50 mg/kg in method) i.g. 30 days
[8] = TE-1, 12.5 mg/kg (low dose) i.g. 30 days
[9] = TE-1, 25 mg/kg (medium dose) i.g. 30 days
[10] = TE-1, 50 mg/kg (high dose) i.g. 30 days

CCC(=O)O[C@@H]1CC(=O)O[C@H](C)C/C=C/C=C/[C@H](O[C@H]2CC[C@H](N(C)C)[C@@H](C)O2)[C@H](C)C[C@H](CC=O)[C@H](O[C@@H]2O[C@H](C)[C@@H](O[C@H]3C[C@@](C)(O)[C@@H](OC(=O)CC(C)C)[C@H](C)O3)[C@H](N(C)C)[C@H]2O)[C@H]1OC [Isovaleryl spiramycin III, isovaleryl spiramycin III]
IC50 [1]: 15.59 ± 0.08 µg/mL (≈ 15.9 µM)
IC50 [2]: 21.38 ± 1.75 µg/mL (≈ 21.7 µM)
Relative Tumor Proliferation Rate (T/C) [3, 5]: 34.75%
tumor growth inhibition rate [3, 5]: 62.94%
Relative Tumor Proliferation Rate (T/C) [3, 6]: 61.93%
tumor growth inhibition rate [3, 6]: 39.06%
tumor volume and relative tumor volume compared with the model group ([3]; TPC-1, low, medium and high doses, P<0.05): significantly lower
Relative Tumor Proliferation Rate (T/C) [3, 7]: 45.01%
tumor growth inhibition rate [3, 7]: 60.25%
Inhibition Rate (%) ([3]; dose 25 mg/kg): 39.06%
Relative Tumor Proliferation Rate (T/C) ([3]; dose 25 mg/kg): 61.93%
Relative Tumor Volume (RTV) ([3]; dose 25 mg/kg): 10.19 ± 2.79
Tumor Weight ([3]; dose 25 mg/kg): 1.47 ± 0.44 g
Tumor Volume (mm3) (d 1) ([3]; dose 25 mg/kg): 119.35 ± 3.84 mm3
Tumor Volume (mm3) (d30) ([3]; dose 25 mg/kg): 1210.76 ± 295.50 mm3
Inhibition Rate (%) ([3]; dose 50 mg/kg): 60.25%
Relative Tumor Proliferation Rate (T/C) ([3]; dose 50 mg/kg): 45.01%
Relative Tumor Volume (RTV) ([3]; dose 50 mg/kg): 7.41 ± 2.51
Tumor Weight ([3]; dose 50 mg/kg): 0.96 ± 0.43 g
Tumor Volume (mm3) (d 1) ([3]; dose 50 mg/kg): 116.75 ± 5.22 mm3
Tumor Volume (mm3) (d30) ([3]; dose 50 mg/kg): 866.73 ± 306.25 mm3
Inhibition Rate (%) ([3]; dose 100 mg/kg): 62.94%
Relative Tumor Proliferation Rate (T/C) ([3]; dose 100 mg/kg): 34.75%
Relative Tumor Volume (RTV) ([3]; dose 100 mg/kg): 5.72 ± 3.04
Tumor Weight ([3]; dose 100 mg/kg): 0.90 ± 0.44 g
Tumor Volume (mm3) (d 1) ([3]; dose 100 mg/kg): 115.43 ± 7.58 mm3
Tumor Volume (mm3) (d30) ([3]; dose 100 mg/kg): 654.78 ± 338.68 mm3
mouse weight compared with the model group ([3]; mouse, in vivo): no significant changes
Body Weight (g) (d1) ([3]; mouse, in vivo, 25 mg/kg): 21.13 ± 1.48 g
Body Weight (g) (d30) ([3]; mouse, in vivo, 25 mg/kg): 23.49 ± 1.02 g
Body Weight (g) (d1) ([3]; mouse, in vivo, 50 mg/kg): 21.43 ± 1.85 g
Body Weight (g) (d30) ([3]; mouse, in vivo, 50 mg/kg): 24.06 ± 1.71 g
Body Weight (g) (d1) ([3]; mouse, in vivo, 100 mg/kg): 20.76 ± 2.13 g
Body Weight (g) (d30) ([3]; mouse, in vivo, 100 mg/kg): 23.72 ± 1.60 g
Inhibition Rate (tumor growth inhibition rate) [4, 8]: 22.64%
Relative Tumor Proliferation Rate (T/C) [4, 8]: 66.52%
Relative Tumor Volume (RTV) [4, 8]: 6.03 ± 5.27
Tumor Volume (d 1) [4, 8]: 173.45 ± 63.55 mm3
Tumor Volume (d 30) [4, 8]: 1254.78 ± 637.73 mm3
Tumor Weight [4, 8]: 1.21 ± 0.53 g
Inhibition Rate (tumor growth inhibition rate) [4, 9]: 40.17%
Relative Tumor Proliferation Rate (T/C) [4, 9]: 50.71%
Relative Tumor Volume (RTV) [4, 9]: 5.02 ± 6.81
Tumor Volume (d 1) [4, 9]: 206.72 ± 79.72 mm3
Tumor Volume (d 30) [4, 9]: 1140.10 ± 819.08 mm3
Tumor Weight [4, 9]: 0.94 ± 0.39 g
Inhibition Rate (tumor growth inhibition rate) [4, 10]: 65.46%
Relative Tumor Proliferation Rate (T/C) [4, 10]: 30.72%
Relative Tumor Volume (RTV) [4, 10]: 3.60 ± 1.29
Tumor Volume (d 1) [4, 10]: 331.09 ± 208.02 mm3
Tumor Volume (d 30) [4, 10]: 1106.23 ± 865.11 mm3
Tumor Weight [4, 10]: 0.54 ± 0.22 g
tumor volume and relative tumor volume compared with the model group ([4]; TE-1, low, medium and high doses, P<0.05): significantly lower
mouse weight compared with the model group ([4]; mouse, in vivo): no significant changes
